We go through 5 molecules from paper PMC7036097 (BioMed Research International, 2020).

T1 sequence (P27487 whole entry): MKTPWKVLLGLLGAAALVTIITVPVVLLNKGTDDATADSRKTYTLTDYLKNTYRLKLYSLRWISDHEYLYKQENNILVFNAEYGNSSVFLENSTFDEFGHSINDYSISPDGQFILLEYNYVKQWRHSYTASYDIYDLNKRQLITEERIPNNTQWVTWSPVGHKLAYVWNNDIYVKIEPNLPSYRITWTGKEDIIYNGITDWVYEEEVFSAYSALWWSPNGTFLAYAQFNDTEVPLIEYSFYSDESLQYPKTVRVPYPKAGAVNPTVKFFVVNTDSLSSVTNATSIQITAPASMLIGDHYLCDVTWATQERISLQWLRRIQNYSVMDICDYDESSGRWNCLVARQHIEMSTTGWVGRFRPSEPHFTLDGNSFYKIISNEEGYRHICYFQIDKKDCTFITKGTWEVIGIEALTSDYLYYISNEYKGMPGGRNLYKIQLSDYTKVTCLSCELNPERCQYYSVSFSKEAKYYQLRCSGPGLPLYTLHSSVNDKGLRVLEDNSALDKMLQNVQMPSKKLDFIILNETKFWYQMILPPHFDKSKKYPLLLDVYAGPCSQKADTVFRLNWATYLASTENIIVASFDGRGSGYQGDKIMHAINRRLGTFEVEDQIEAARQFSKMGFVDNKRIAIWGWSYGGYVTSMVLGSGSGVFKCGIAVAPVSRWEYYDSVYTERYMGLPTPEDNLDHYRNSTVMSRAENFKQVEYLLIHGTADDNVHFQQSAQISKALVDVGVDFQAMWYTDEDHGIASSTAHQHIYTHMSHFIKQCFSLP

The assay addresses T1, DPP4 (Homo sapiens, UniProt P27487).
T1 construct: purchased Sigma
Put plainly: DPPIV-Glo Protease Assay (DPP4 protease inhibition assay). It is filed as biochemical. Conditions: in vitro. As to the method:
At the same time, the inhibitory effect of other compounds present in tea such as epigallocatechin, epicatechin gallate, epicatechin, and catechin on DPP4 activity was also determined. […] Epigallocatechin, epicatechin gallate, epicatechin, and catechin were obtained from bidepharm (Shanghai, China). Half maximal inhibitory concentration (IC50) values were determined by nonlinear regression in GraphPad Prism 6 software.
A word on the IC50: it is the point on the concentration scale where inhibition reaches its midpoint. The low end stands for greater potency, the high end for weaker potency. As to `Oc1cc(O)c2c(c1)O[C@H](c1cc(O)c(O)c(O)c1)[C@H](O)C2` [epigallocatechin], half-maximal inhibition (IC50) required 567 µM.

In turn, `Oc1cc(O)c2c(c1)O[C@H](c1ccc(O)c(O)c1)[C@@H](O)C2` [catechin] had an IC50 of 381 µM. The IC50 values of the last two molecules are within 1.5-fold of each other.

On to `O=C(O[C@@H]1Cc2c(O)cc(O)cc2O[C@@H]1c1ccc(O)c(O)c1)c1cc(O)c(O)c(O)c1` [epicatechin gallate], for which the midpoint of inhibition, the IC50, lay at 107 µM. Against the preceding molecule, the IC50 is about 3.6-fold lower.

For the molecule `O=C(OC1Cc2c(O)cc(O)cc2OC1c1cc(O)c(O)c(O)c1)c1cc(O)c(O)c(O)c1` (centres unmarked) [EGCG, Epigallocatechin-3-gallate], the IC50 was determined as 28.4 µM.

`Oc1cc(O)c2c(c1)O[C@H](c1ccc(O)c(O)c1)[C@H](O)C2` [epicatechin]: the IC50 was 281 µM.
